In patent US9718790B2, “Triazine derivative and pharmaceutical composition having an analgesic activity comprising the same” (SHIONOGI & CO., LTD., priority 2010, dated 2017) one finds IC50 data, which are given here for 42 compounds.

In this assay the target is human P2X3 receptor (Homo sapiens (Human), UniProt P56373). In words: Evaluation of human P2X3 receptor inhibitory activity (Fluo-3 calcium fluorescence, FDSS 3000, ATP stimulation).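 Also: stimulus was 50 nM ATP with fluorescence followed for 3 min, and the response per well was peak post-ATP fluorescence divided by the reading at measurement start.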 In kind it is cell-based. To be noted: C6BU-1 cells stably expressing human P2X3 receptor.
Chain of human P2X3 receptor (P56373 whole entry): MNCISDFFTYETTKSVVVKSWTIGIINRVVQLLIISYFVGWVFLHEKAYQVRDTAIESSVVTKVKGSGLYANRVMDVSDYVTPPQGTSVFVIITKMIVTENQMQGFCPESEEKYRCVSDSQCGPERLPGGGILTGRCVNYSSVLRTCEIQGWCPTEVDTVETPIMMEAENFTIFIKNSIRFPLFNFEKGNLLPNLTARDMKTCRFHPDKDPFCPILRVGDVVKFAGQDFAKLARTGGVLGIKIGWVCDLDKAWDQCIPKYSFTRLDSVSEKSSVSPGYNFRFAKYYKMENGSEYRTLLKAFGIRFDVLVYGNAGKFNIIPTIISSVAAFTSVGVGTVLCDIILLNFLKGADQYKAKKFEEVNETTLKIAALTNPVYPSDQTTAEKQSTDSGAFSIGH

As a reminder, the IC50 is the concentration that gives 50% inhibition. Consider `COC(=O)[C@H](C)[C@H](C)n1c(=O)[nH]/c(=N\c2ccc(OCC(C)C)cc2)n(Cc2ccc(C)cc2)c1=O` [Compound I-1331], for which the IC50 is 0.056 µM.

Regarding `Cc1ccc(Cn2c(=O)n(CCC(=O)O)c(=O)[nH]/c2=N\c2ccc(OC3CCC3)c(Cl)c2)cc1` [Compound I-1332], the IC50 turned out to be 0.054 µM.

In the case of `O=C(O)CCn1c(=O)[nH]/c(=N\c2ccc(OC3CCC3)c(Cl)c2)n(Cc2ccc(Cl)cc2)c1=O` [Compound I-1333], the IC50 stood at 0.052 µM.

Regarding `Cc1ccc(Cn2c(=O)n([C@@H](C)[C@@H](C)C(=O)O)c(=O)[nH]/c2=N\c2ccc(OC(C)C)c(Br)c2)cc1` [Compound I-1334], the IC50 turned out to be 0.011 µM.

Regarding `Cc1ccc(Cn2c(=O)n([C@@H](C)[C@@H](C)C(=O)O)c(=O)[nH]/c2=N\c2cccc(C(F)(F)F)c2)cc1` [Compound I-1335], the IC50 was 0.03 µM.

With `Cc1ccc(Cn2c(=O)n([C@H](C)[C@H](C)C(=O)O)c(=O)[nH]/c2=N\c2ccc(OC(C)C)cc2)cc1` [Compound I-1336], the IC50 was found to be 0.071 µM.

For the compound `Cc1ccc(Cn2c(=O)n([C@H](C)[C@H](C)C(=O)O)c(=O)[nH]/c2=N\c2ccc(OC(C)C)c(Cl)c2)cc1` [Compound I-1337], the IC50 was determined as 0.014 µM.

For the compound `Cc1ccc(Cn2c(=O)n([C@H](C)[C@H](C)C(=O)O)c(=O)[nH]/c2=N\c2ccc(OC(C)C)c(F)c2)cc1` [Compound I-1338], the IC50 is 0.036 µM.

Take `Cc1ccc(Cn2c(=O)n([C@H](C)[C@H](C)C(=O)O)c(=O)[nH]/c2=N\c2ccc(OC(C)C)c(C)c2)cc1` [Compound I-1339]: the IC50 stood at 0.03 µM.

Consider `CCCOc1ccc(/N=c2\[nH]c(=O)n([C@H](C)[C@H](C)C(=O)O)c(=O)n2Cc2ccc(C)cc2)cc1` [Compound I-1340], for which the IC50 came out at 0.057 µM.

For `Cc1ccc(Cn2c(=O)n([C@H](C)[C@H](C)C(=O)O)c(=O)[nH]/c2=N\c2ccc(OCC3CC3)cc2)cc1` [Compound I-1341], the IC50 came to 0.036 µM.

Regarding `CC(C)Oc1ccc(/N=c2\[nH]c(=O)n([C@H](C)[C@H](C)C(=O)O)c(=O)n2Cc2ccc(Cl)cc2)cc1Cl` [Compound I-1342], the concentration for half-maximal inhibition (IC50) came out at 0.01 µM.

For `CC(C)Oc1ccc(/N=c2\[nH]c(=O)n([C@H](C)[C@H](C)C(=O)O)c(=O)n2Cc2ccc(Cl)cc2)cc1F` [Compound I-1343], the IC50 is 0.035 µM.

For `C[C@H](C(=O)O)[C@@H](C)n1c(=O)[nH]/c(=N\c2ccc(OCC3CC3)cc2)n(Cc2ccc(Cl)cc2)c1=O` [Compound I-1344], the IC50 came out at 0.033 µM.

Consider `C[C@H](C(=O)O)[C@@H](C)n1c(=O)[nH]/c(=N\c2cccc(C(F)(F)F)c2)n(Cc2ccc(Cl)cc2)c1=O` [Compound I-1345], for which the IC50 was 0.069 µM.

`C[C@@H](Cn1c(=O)[nH]/c(=N\c2ccc3ncccc3c2)n(Cc2ccc(Cl)cc2)c1=O)C(=O)O` [Compound I-1346]: the IC50 is 0.812 µM.

Regarding `Cc1nc2ccc(/N=c3\[nH]c(=O)n(C[C@H](C)C(=O)O)c(=O)n3Cc3ccc(Cl)cc3)cc2nc1C` [Compound I-1348], the IC50 turned out to be 0.918 µM.

On to `Cc1nc2ccc(/N=c3\[nH]c(=O)n(C[C@H](C)C(=O)O)c(=O)n3Cc3ccc(Cl)cc3)cc2s1` [Compound I-1349], for which the IC50 was determined as 0.015 µM.

Consider `Cc1ccc2cc(/N=c3\[nH]c(=O)n([C@@H](C)[C@@H](C)C(=O)O)c(=O)n3Cc3ccc(Cl)cc3)ccc2n1` [Compound I-1350], for which the IC50 was 0.028 µM.

For `Cc1cc2cc(/N=c3\[nH]c(=O)n([C@@H](C)[C@@H](C)C(=O)O)c(=O)n3Cc3ccc(Cl)cc3)ccc2o1` [Compound I-1351], the IC50 is 0.041 µM.

Regarding `Cc1ccc(Cn2c(=O)n([C@@H](C)[C@@H](C)C(=O)O)c(=O)[nH]/c2=N\c2ccc3nc(C)ccc3c2)cc1` [Compound I-1352], the IC50 came out at 0.026 µM.

Take `Cc1ccc(Cn2c(=O)n([C@@H](C)[C@@H](C)C(=O)O)c(=O)[nH]/c2=N\c2ccc3oc(C)cc3c2)cc1` [Compound I-1353]: the IC50 amounted to 0.041 µM.

Turning to `CCCc1ccc(/N=c2\[nH]c(=O)n(C[C@H](C)C(=O)O)c(=O)n2Cc2ccc(Cl)cc2)cc1OC` [Compound I-1354], the concentration for half-maximal inhibition (IC50) worked out at 0.139 µM.

Regarding `COc1cc(/N=c2\[nH]c(=O)n(CCC(=O)O)c(=O)n2Cc2ccc(Cl)cc2)ccc1CC(C)C` [Compound I-1355], the IC50 worked out at 0.177 µM.

With `Cc1ccc(Cn2c(=O)n(CCC(=O)O)c(=O)[nH]/c2=N\c2ccc(Oc3ccc(C)nc3)cc2)cc1` [Compound I-1356], the IC50 worked out at 0.048 µM.

Turning to `Cc1ccc(Oc2ccc(/N=c3\[nH]c(=O)n(CCC(=O)O)c(=O)n3Cc3ccc(Cl)cc3)cc2)cn1` [Compound I-1357], the IC50 was 0.025 µM.

For the compound `Cc1ccc(Oc2ccc(/N=c3\[nH]c(=O)n(CC(C)(C)C(=O)O)c(=O)n3Cc3ccc(Cl)cc3)cc2)cn1` [Compound I-1358], the IC50 came out at 0.009 µM.

As for `Cc1ccc(Cn2c(=O)n(C[C@H](C)C(=O)O)c(=O)[nH]/c2=N\c2ccc(CC(C)C)nc2)cc1` [Compound I-1359], the IC50 worked out at 0.724 µM.

On to `CCCc1ccc(/N=c2\[nH]c(=O)n(C[C@H](C)C(=O)OC)c(=O)n2Cc2ccc(C)cc2)cc1OC` [Compound I-1360], for which the IC50 was found to be 0.032 µM.

For the compound `CCOC(=O)CCn1c(=O)[nH]/c(=N\c2ccc(CC(C)C)c(OC)c2)n(Cc2ccc(C)cc2)c1=O` [Compound I-1361], the IC50 was determined as 0.015 µM.

With `COc1cc(/N=c2\[nH]c(=O)n(CCC(=O)O)c(=O)n2Cc2ccc(C)cc2)ccc1CC(C)C` [Compound I-1362], the IC50 is 0.054 µM.

As to `COC(=O)[C@H](C)[C@H](C)n1c(=O)[nH]/c(=N\c2ccc(CC(C)C)c(OC)c2)n(Cc2ccc(Cl)cc2)c1=O` [Compound I-1363], the IC50 was 0.056 µM.

In the case of `COC(=O)[C@H](C)[C@H](C)n1c(=O)[nH]/c(=N\c2ccc(CC(C)C)c(OC)c2)n(Cc2ccc(C)cc2)c1=O` [Compound I-1364], the IC50 was 0.043 µM.

For `CCCc1ccc(/N=c2\[nH]c(=O)n(C[C@H](C)C(=O)O)c(=O)n2Cc2ccc(C)cc2)cc1OC` [Compound I-1365], the IC50 stood at 0.094 µM.

`COc1cc(/N=c2\[nH]c(=O)n([C@@H](C)[C@@H](C)C(=O)O)c(=O)n2Cc2ccc(Cl)cc2)ccc1CC(C)C` [Compound I-1366]: the IC50 turned out to be 0.02 µM.

Take `COc1cc(/N=c2\[nH]c(=O)n([C@@H](C)[C@@H](C)C(=O)O)c(=O)n2Cc2ccc(C)cc2)ccc1CC(C)C` [Compound I-1367]: the 50% inhibitory concentration (IC50) came to 0.014 µM.

For `COC(=O)CCCn1c(=O)[nH]/c(=N\c2ccc(Oc3ccc(C)nc3)cc2)n(Cc2ccc(Cl)cc2)c1=O` [Compound I-1368], the IC50 stood at 0.005 µM.

For `CCOC(=O)CCCn1c(=O)[nH]/c(=N\c2ccc(Oc3ccc(C)nc3)cc2)n(Cc2ccc(C)cc2)c1=O` [Compound I-1369], the IC50 is 0.003 µM.

As to `COC(=O)[C@@H](C)Cn1c(=O)[nH]/c(=N\c2ccc(CC(C)C)c(Cl)c2)n(Cc2ccc(Cl)cc2)c1=O` [Compound I-1370], the IC50 came to 0.019 µM.

As to `COC(=O)[C@@H](C)Cn1c(=O)[nH]/c(=N\c2ccc(CC(C)C)c(Cl)c2)n(Cc2ccc(C)cc2)c1=O` [Compound I-1371], the IC50 is 0.009 µM.

Take `CC(C)Cc1ccc(/N=c2\[nH]c(=O)n(C[C@H](C)C(=O)O)c(=O)n2Cc2ccc(Cl)cc2)cc1Cl` [Compound I-1372]: the IC50 stood at 0.005 µM.

As to `COC(=O)[C@H](C)[C@H](C)n1c(=O)[nH]/c(=N\c2ccc(Oc3ccc(C)nc3)cc2)n(Cc2ccc(Cl)cc2)c1=O` [Compound I-1375], the IC50 came to 0.005 µM.
